Patent publication US10392373B2, “Oxazole derivatives that inhibit Syk” (AB Science, priority 2015, dated 2019)

Target: T1, SYK kinase (Homo sapiens, UniProt P43405)
T1 construct: SYK kinase was purified as a full length protein in a baculovirus system near homogeneity; made in house
Assay: In vitro Syk inhibition assay (Kinase TK HTRF, Cisbio)
Type: biochemical
Settings: full length SYK purified from a baculovirus system; ATP at least twice the Km; room temperature; average of triplicate; read-out: IC50: Concentration inhibiting 50% of protein kinase
Procedure: Protocol Inhibition Assays.
SYK kinase was purified as a full length protein in a baculovirus system near homogeneity. All kinase assays were performed with the Kinase TK (tyrosine kinase) HTRF (Homogeneous Time Resolved Fluorescence) assay developed by Cisbio international. These assays were carried out at room temperature in 96-wells half-area white plates in a final volume of 25 μl of kinase buffer (10 mM MgCl2; 2 mM MnCl2; 50 mM Sodium-HEPES pH 7.8; BRIJ-35 0.01%, 1 μM substrate) containing ATP at a concentration of at least twice the Km for each enzyme and an appropriate amount of recombinant enzyme to ensure a linear reaction rate. Reactions were initiated upon introduction of the enzyme and terminated with the addition of one reaction volume (25 μl) of HTRF detection buffer. Plates were incubated for one hour at room temperature and the time resolved Fluorescence resonance energy transfer signal was measured in a Pherastar FS microplate reader (BMG Labtech). All data are the average of triplicate results with a standard deviation <10%.

IC50	SMILES
1000 to 10000 nM	CC1(C)C(=O)NCCN1c1ncc(-c2cccc(Nc3nccc(N4CCCC4)n3)c2)o1 [Compound 032, 3,3-Dimethyl-4-{5-[3-(4-pyrrolidin-1-yl-pyrimidin-2-ylamino)-phenyl]-oxazol-2-yl}-piperazin-2-one]
1000 to 10000 nM	Cc1cnc(Nc2cccc(-c3cnc(N4CCNC(=O)C4(C)C)o3)c2)nc1C [Compound 022, 4-{5-[3-(4,5-Dimethyl-pyrimidin-2-ylamino)-phenyl]-oxazol-2-yl}-3,3-dimethyl-piperazin-2-one]
≤ 100 nM	COc1ccnc(Nc2cccc(-c3cnc(N4CCNC(=O)C4(C)C)o3)c2)n1 [Compound 026, 4-{5-[3-(4-Methoxy-pyrimidin-2-ylamino)-phenyl]-oxazol-2-yl}-3,3-dimethyl-piperazin-2-one]
≤ 100 nM	CCc1ccnc(Nc2cccc(-c3cnc(N4CCNC(=O)C4C(C)C)o3)c2)n1 (stereo not drawn) [Compound 038, 4-{5-[3-(4-Ethyl-pyrimidin-2-ylamino)-phenyl]-oxazol-2-yl}-3-isopropyl-piperazin-2-one]
≤ 100 nM	Cc1ccnc(Nc2cccc(-c3cnc(N4CCNC(=O)[C@H]4C(C)C)o3)c2)n1 [Compound 040, (R)-3-Isopropyl-4-{5-[3-(4-methyl-pyrimidin-2-ylamino)-phenyl]-oxazol-2-yl}-piperazin-2-one]
1000 to 10000 nM	CC(C)C1C(=O)NCCN1c1ncc(-c2cccc(Nc3nccc(N4CCCC4)n3)c2)o1 (stereo not drawn) [Compound 034, 3-Isopropyl-4-{5-[3-(4-pyrrolidin-1-yl-pyrimidin-2-ylamino)-phenyl]-oxazol-2-yl}-piperazin-2-one]
≤ 100 nM	CC1C(=O)NCCN1c1ncc(-c2cccc(Nc3nccc(-c4cccs4)n3)c2)o1 (stereo not drawn) [Compound 010, 3-Methyl-4-{5-[3-(4-thiophen-2-yl-pyrimidin-2-ylamino)-phenyl]-oxazol-2-yl}-piperazin-2-one]
≤ 100 nM	CC(C)c1ccnc(Nc2cccc(-c3cnc(N4CCNC(=O)C4C(C)C)o3)c2)n1 (stereo not drawn) [Compound 036, 3-Isopropyl-4-{5-[3-(4-isopropyl-pyrimidin-2-ylamino)-phenyl]-oxazol-2-yl}-piperazin-2-one]
1000 to 10000 nM	CC1C(=O)NCCN1c1ncc(-c2cccc(Nc3nccc(N4CCN(C)CC4)n3)c2)o1 (stereo not drawn) [Compound 029, 3-Methyl-4-(5-{3-[4-(4-methyl-piperazin-1-yl)-pyrimidin-2-ylamino]-phenyl}-oxazol-2-yl)-piperazin-2-one]
≤ 100 nM	CCC1C(=O)NCCN1c1ncc(-c2cccc(Nc3nccc(C(F)(F)F)n3)c2)o1 (stereo not drawn) [Compound 011, 3-Ethyl-4-{5-[3-((4-trifluoromethyl)-pyrimidin-2-ylamino)-phenyl]-oxazol-2-yl}-piperazin-2-one]
≤ 100 nM	CC1C(=O)NCCN1c1ncc(-c2cccc(Nc3nccc(C4CC4)n3)c2)o1 (stereo not drawn) [Compound 041, 4-{5-[3-(4-Cyclopropyl-pyrimidin-2-ylamino)-phenyl]-oxazol-2-yl}-3-methyl-piperazin-2-one]
≤ 100 nM	CC1C(=O)NCCN1c1ncc(-c2cccc(Nc3nccc(C#N)n3)c2)o1 (stereo not drawn) [Compound 017, 2-{3-[2-(2-Methyl-3-oxo-piperazin-1-yl)-oxazol-5-yl]-phenylamino}-pyrimidine-4-carbonitrile]
100 to 1000 nM	Cc1ccnc(Nc2cc(CN(C)C)cc(-c3cnc(N4CCNC(=O)C4(C)C)o3)c2)n1 [Compound 044, 4-{5-[3-Dimethylaminomethyl-5-(4-methyl-pyrimidin-2-ylamino)-phenyl]-oxazol-2-yl}-3,3-dimethyl-piperazin-2-one]
1000 to 10000 nM	CC(C)C1C(=O)NCCN1c1ncc(-c2cccc(Nc3nccc(N4CCN(C)CC4)n3)c2)o1 (stereo not drawn) [Compound 035, 3-Isopropyl-4-(5-{3-[4-(4-methyl-piperazin-1-yl)-pyrimidin-2-ylamino]-phenyl}-oxazol-2-yl)-piperazin-2-one]
≤ 100 nM	CC1(C)C(=O)NCCN1c1ncc(-c2cccc(Nc3nccc(C(F)(F)F)n3)c2)o1 [Compound 018, 3,3-Dimethyl-4-{5-[3-((4-trifluoromethyl)-pyrimidin-2-ylamino)-phenyl]-oxazol-2-yl}-piperazin-2-one]
100 to 1000 nM	CC1C(=O)NCCN1c1ncc(-c2cccc(Nc3nccc(N4CCCC4)n3)c2)o1 (stereo not drawn) [Compound 028, 3-Methyl-4-{5-[3-(4-pyrrolidin-1-yl-pyrimidin-2-ylamino)-phenyl]-oxazol-2-yl}-piperazin-2-one]
≤ 100 nM	Cc1ccnc(Nc2cccc(-c3cnc(N4CCNC(=O)C4C(C)C)o3)c2)n1 (stereo not drawn) [Compound 003, 3-Isopropyl-4-{5-[3-(4-methyl-pyrimidin-2-ylamino)-phenyl]-oxazol-2-yl}-piperazin-2-one]
≤ 100 nM	CC(C)C1C(=O)NCCN1c1ncc(-c2cccc(Nc3nccc(C4CC4)n3)c2)o1 (stereo not drawn) [Compound 043, 4-{5-[3-(4-Cyclopropyl-pyrimidin-2-ylamino)-phenyl]-oxazol-2-yl}-3-isopropyl-piperazin-2-one]
≤ 100 nM	CC1(C)C(=O)NCCN1c1ncc(-c2cccc(Nc3nccc(C4CC4)n3)c2)o1 [Compound 042, 4-{5-[3-(4-Cyclopropyl-pyrimidin-2-ylamino)-phenyl]-oxazol-2-yl}-3,3-dimethyl-piperazin-2-one]
≤ 100 nM	CCC1C(=O)NCCN1c1ncc(-c2cccc(Nc3nccc(C(C)C)n3)c2)o1 (stereo not drawn) [Compound 025, 3-Ethyl-4-{5-[3-(4-isopropyl-pyrimidin-2-ylamino)-phenyl]-oxazol-2-yl}-piperazin-2-one]
100 to 1000 nM	CC1C(=O)NCCN1c1ncc(-c2cccc(Nc3nccc(N4CCOCC4)n3)c2)o1 (stereo not drawn) [Compound 027, 3-Methyl-4-{5-[3-(4-morpholin-4-yl-pyrimidin-2-ylamino)-phenyl]-oxazol-2-yl}-piperazin-2-one]
≤ 100 nM	Cc1ccnc(Nc2cc(CN3CCOCC3)cc(-c3cnc(N4CCNC(=O)C4(C)C)o3)c2)n1 [Compound 005, 3,3-Dimethyl-4-{5-[3-(4-methyl-pyrimidin-2-ylamino)-5-morpholin-4-ylmethyl-phenyl]-oxazol-2-yl}-piperazin-2-one]
≤ 100 nM	CCc1ccnc(Nc2cccc(-c3cnc(N4CCNC(=O)C4(C)C)o3)c2)n1 [Compound 037, 4-{5-[3-(4-Ethyl-pyrimidin-2-ylamino)-phenyl]-oxazol-2-yl}-3,3-dimethyl-piperazin-2-one]
100 to 1000 nM	Cc1ccnc(Nc2cc(CN3CCOCC3)cc(-c3cnc(N4CCNC(=O)C4C)o3)c2)n1 (stereo not drawn) [Compound 014, 3-Methyl-4-{5-[3-(4-methyl-pyrimidin-2-ylamino)-5-morpholin-4-ylmethyl-phenyl]-oxazol-2-yl}-piperazin-2-one]
≤ 100 nM	Cc1ccnc(Nc2cccc(-c3cnc(N4CCNC(=O)C4C)o3)c2)n1 (stereo not drawn) [Compound 001, 3-Methyl-4-{5-[3-(4-methyl-pyrimidin-2-ylamino)-phenyl]-oxazol-2-yl}-piperazin-2-one]
≤ 100 nM	CC(C)c1ccnc(Nc2cccc(-c3cnc(N4CCNC(=O)C4C)o3)c2)n1 (stereo not drawn) [Compound 021, 4-{5-[3-(4-Isopropyl-pyrimidin-2-ylamino)-phenyl]-oxazol-2-yl}-3-methyl-piperazin-2-one]
1000 to 10000 nM	CC(C)C1C(=O)NCCN1c1ncc(-c2cccc(Nc3nccc(N4CCOCC4)n3)c2)o1 (stereo not drawn) [Compound 033, 3-Isopropyl-4-{5-[3-(4-morpholin-4-yl-pyrimidin-2-ylamino)-phenyl]-oxazol-2-yl}-piperazin-2-one]
≤ 100 nM	CC1C(=O)NCCN1c1ncc(-c2cccc(Nc3nccc(C(F)(F)F)n3)c2)o1 (stereo not drawn) [Compound 009, 3-Methyl-4-{5-[3-((4-trifluoromethyl)-pyrimidin-2-ylamino)-phenyl]-oxazol-2-yl}-piperazin-2-one]
≤ 100 nM	Cc1ccnc(Nc2cccc(-c3cnc(N4CCNC(=O)[C@H]4C)o3)c2)n1 [Compound 007, (R)-3-Methyl-4-{5-[3-(4-methyl-pyrimidin-2-ylamino)-phenyl]-oxazol-2-yl}-piperazin-2-one]
100 to 1000 nM	Cc1ccnc(Nc2cccc(-c3cnc(N4CCNC(=O)[C@@H]4C(C)C)o3)c2)n1 [Compound 039, (S)-3-Isopropyl-4-{5-[3-(4-methyl-pyrimidin-2-ylamino)-phenyl]-oxazol-2-yl}-piperazin-2-one]
